Broadly, the AC50 is the midpoint of the concentration-response curve, whichever way the signal moves.

Active and inactive are the calls of the source.

Drawing on ChEMBL document CHEMBL1201862, “PubChem BioAssay data set” (2004), this text covers AC50, EC50 and IC50 for 16 compounds.

In the first assay the target is Cytochrome P450 2D6 (Homo sapiens, UniProt P10635).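 Further: CYP2D6 member of a cytochrome P450 panel assay.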
Sequence of Cytochrome P450 2D6 (P10635 whole entry): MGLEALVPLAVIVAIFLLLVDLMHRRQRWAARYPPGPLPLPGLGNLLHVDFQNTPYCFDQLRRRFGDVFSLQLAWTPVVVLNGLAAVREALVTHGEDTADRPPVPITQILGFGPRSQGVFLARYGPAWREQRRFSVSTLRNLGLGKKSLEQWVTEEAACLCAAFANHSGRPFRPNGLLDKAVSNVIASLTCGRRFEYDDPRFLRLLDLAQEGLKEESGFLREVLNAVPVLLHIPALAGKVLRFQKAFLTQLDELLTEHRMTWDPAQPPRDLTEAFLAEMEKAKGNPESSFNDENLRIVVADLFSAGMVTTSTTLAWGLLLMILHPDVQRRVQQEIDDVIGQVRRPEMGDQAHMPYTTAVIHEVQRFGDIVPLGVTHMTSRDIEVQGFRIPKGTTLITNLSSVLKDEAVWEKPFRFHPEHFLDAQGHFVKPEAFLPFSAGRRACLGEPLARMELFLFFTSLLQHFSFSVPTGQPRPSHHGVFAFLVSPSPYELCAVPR
Assay: not given
Conditions: not given
For the compound `O=C(CSc1nnc(-c2cccc(S(=O)(=O)N3CCOCC3)c2)n1C1CCCCCC1)NCc1ccccc1`, the AC50 was 7.94 µM (inconclusive).
`O=C(CN1CCCCC1)Nc1cccc([N+](=O)[O-])c1`: the AC50 was 15.8 µM (inconclusive).

The next assay has as its target T1, Cytochrome P450 1A2 (Homo sapiens, UniProt P05177).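 Further: PubChem cytochrome P450 panel assay, CYP1A2 panel member.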
T1 sequence (P05177 whole entry): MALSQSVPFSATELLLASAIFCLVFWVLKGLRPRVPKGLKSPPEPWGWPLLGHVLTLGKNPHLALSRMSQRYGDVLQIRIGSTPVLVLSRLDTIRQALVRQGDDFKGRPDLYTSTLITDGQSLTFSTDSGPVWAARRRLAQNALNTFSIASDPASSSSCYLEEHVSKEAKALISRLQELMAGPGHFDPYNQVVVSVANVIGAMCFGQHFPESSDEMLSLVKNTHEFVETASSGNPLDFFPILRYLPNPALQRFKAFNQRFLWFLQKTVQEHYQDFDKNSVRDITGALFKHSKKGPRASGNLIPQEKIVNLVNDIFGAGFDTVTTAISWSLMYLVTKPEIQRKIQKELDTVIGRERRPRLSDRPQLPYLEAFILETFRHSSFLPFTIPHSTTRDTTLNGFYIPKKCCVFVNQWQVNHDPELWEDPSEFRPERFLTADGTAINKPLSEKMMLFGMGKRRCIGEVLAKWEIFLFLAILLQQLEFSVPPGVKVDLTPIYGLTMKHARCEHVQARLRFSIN
Assay: not given
Conditions: not given
`O=C(CSc1nnc(-c2cccc(S(=O)(=O)N3CCOCC3)c2)n1C1CCCCCC1)NCc1ccccc1`: the AC50 is 39.8 µM (inconclusive).
Take `O=C(CN1CCCCC1)Nc1cccc([N+](=O)[O-])c1`: the AC50 is 39.8 µM (inconclusive).
For `O=C(O)CCC/C=C\C[C@@H]1CO[C@H](C(F)(F)F)O[C@@H]1c1ccccc1O`, the AC50 was 39.8 µM (inconclusive).
For the compound `CCNc1ncc2nc(-c3ccc(OC)cc3)c(=O)n(CCOC)c2n1`, the AC50 was 1.26 µM (inconclusive).
In the case of `Cc1ccc(CNc2nc(N)c([N+](=O)[O-])c(Nc3ccc(F)cc3)n2)cc1`, the AC50 is 1.12 µM (inconclusive).

For the next assay, the target named is T2, Heat shock factor protein 1 (Mus musculus, UniProt P38532).
T2 sequence (P38532 whole entry): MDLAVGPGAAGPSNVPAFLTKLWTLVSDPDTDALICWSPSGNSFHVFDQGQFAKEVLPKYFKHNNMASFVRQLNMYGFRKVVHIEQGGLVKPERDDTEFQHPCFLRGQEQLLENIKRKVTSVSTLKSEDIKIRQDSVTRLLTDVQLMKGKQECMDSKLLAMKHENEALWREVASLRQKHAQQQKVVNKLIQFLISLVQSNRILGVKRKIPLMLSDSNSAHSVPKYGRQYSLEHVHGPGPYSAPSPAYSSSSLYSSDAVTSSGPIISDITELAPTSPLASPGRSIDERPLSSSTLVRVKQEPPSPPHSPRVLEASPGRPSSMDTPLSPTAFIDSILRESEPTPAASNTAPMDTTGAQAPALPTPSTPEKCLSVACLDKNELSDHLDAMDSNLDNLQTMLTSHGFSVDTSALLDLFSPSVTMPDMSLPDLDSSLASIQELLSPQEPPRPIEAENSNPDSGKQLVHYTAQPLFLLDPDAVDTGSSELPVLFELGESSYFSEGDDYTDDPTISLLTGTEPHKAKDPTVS
Nature of the assay: inhibition of MG132-induced HSE-luciferase signal, confirmation, cell-based, NIH3T3, luminescence, dose retest (AID 2382).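 Further: NIH3T3 fibroblasts with HSF1-driven luciferase reporter stressed by proteasome inhibitor MG132; luminescence from HSF1-driven luciferase expression after 8 hours of MG132 stress.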 The assay is classed as functional.
Conditions: not given
With `Cc1ccc(C)n1NC(=O)c1ccccc1O`, the EC50 is reported as > 195 µM (not active).

A further assay deals with H4. Nature of the assay: Luminescence Cell-Based Dose Response HTS to Identify Activators of 5'UTR Stem-Loop Driven Prion Protein mRNA Translation in H4 Neuroglioblastoma Cells. [Related pubchem assays: 1829 (Project Summary), 1814 (Primary HTS)]. Conditions: Homo sapiens. It counts as functional.
Take `O=C1N=C(N2CCCCC2)SC1=C1CCCCC1`: the EC50 was 21.5 µM (active).
For `O=C1/C(=C/c2ccccn2)SC(=S)N1CCc1ccccc1`, the EC50 was 19.4 µM (active).
Take `CCn1cc(Br)c(-c2nc3ccccc3c(=O)n2N)n1`: the EC50 was > 120 µM (not active).
Take `COc1ccc(/C=C2\SC(=O)N(CCNC(=O)C3CCN(S(=O)(=O)c4cccs4)CC3)C2=O)cc1`: the EC50 is 19.1 µM (active).
Turning to `Cc1cccc(-n2cnc3cc(C(=O)N4CCCCC4)ccc32)c1`, the EC50 was 13.9 µM (active).
In the case of `c1ccc(-c2ccc(OCCOCCn3cncn3)cc2)cc1`, the EC50 was 17.2 µM (inconclusive).
As for `O=C(/C=C/c1cccs1)Nc1ccc(N2CCOCC2)c(S(=O)(=O)Nc2ccccc2Cl)c1`, the EC50 is 22.2 µM (active).
Turning to `Cc1ccc(Cn2nc(-c3ccccc3)nc2-c2ccccc2)cc1`, the EC50 is 17.9 µM (active).

Test system in a further assay: not listed separately
As to the kind of experiment: Luminescence Cell-Based Dose Confirmation HTS to Identify Activators of 5'UTR Stem-Loop Driven Alpha-Synuclein mRNA Translation in H4 Neuroglioblastoma Cells. [Related pubchem assays: 1829 (Project Summary), 1814 (Primary HTS)].
Conditions: not given
It counts as functional.
On to `O=C1N=C(N2CCCCC2)SC1=C1CCCCC1`, for which the EC50 is 13.8 µM (active).
For the compound `O=C1/C(=C/c2ccccn2)SC(=S)N1CCc1ccccc1`, the EC50 is 8.16 µM (active).
Turning to `CCn1cc(Br)c(-c2nc3ccccc3c(=O)n2N)n1`, the EC50 was 102 µM (active).
Turning to `COc1ccc(/C=C2\SC(=O)N(CCNC(=O)C3CCN(S(=O)(=O)c4cccs4)CC3)C2=O)cc1`, the EC50 is 10.2 µM (active).
Regarding `Cc1cccc(-n2cnc3cc(C(=O)N4CCCCC4)ccc32)c1`, the EC50 was 17.9 µM (active).
In the case of `c1ccc(-c2ccc(OCCOCCn3cncn3)cc2)cc1`, the EC50 was 30.9 µM (active).
Consider `O=C(/C=C/c1cccs1)Nc1ccc(N2CCOCC2)c(S(=O)(=O)Nc2ccccc2Cl)c1`, for which the EC50 was 12 µM (active).
On the same count and under the same terms, for `Cc1ccc(Cn2nc(-c3ccccc3)nc2-c2ccccc2)cc1` the value was 5.09 µM (active).

The target in a further assay is Cytochrome P450 2C19 (Homo sapiens, UniProt P33261). As to the kind of experiment: Cytochrome panel assay with activity outcomes. Panel member name: p450-cyp2c19 Compounds with AC50 equal or less than 10 uM are considered active. The note with it: read-out: AC50. It counts as functional.
Sequence of Cytochrome P450 2C19 (P33261 whole entry): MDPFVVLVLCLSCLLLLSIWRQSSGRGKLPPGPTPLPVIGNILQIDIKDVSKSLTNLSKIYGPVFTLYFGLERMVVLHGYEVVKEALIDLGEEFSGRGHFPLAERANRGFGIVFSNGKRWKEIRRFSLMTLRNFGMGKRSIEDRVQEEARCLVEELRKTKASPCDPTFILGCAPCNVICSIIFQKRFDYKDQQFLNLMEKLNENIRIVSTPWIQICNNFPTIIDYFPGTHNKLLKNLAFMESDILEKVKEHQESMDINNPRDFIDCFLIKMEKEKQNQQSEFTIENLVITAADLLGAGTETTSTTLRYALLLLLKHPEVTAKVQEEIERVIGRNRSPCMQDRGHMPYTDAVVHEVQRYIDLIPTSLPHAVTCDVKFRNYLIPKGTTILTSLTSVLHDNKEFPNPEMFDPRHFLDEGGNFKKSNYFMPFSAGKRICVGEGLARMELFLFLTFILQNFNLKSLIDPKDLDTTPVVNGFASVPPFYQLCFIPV
Turning to `O=C(CSc1nnc(-c2cccc(S(=O)(=O)N3CCOCC3)c2)n1C1CCCCCC1)NCc1ccccc1`, the AC50 is 31.6 µM (inconclusive).
Same read-out and setting: next, `O=C(CN1CCCCC1)Nc1cccc([N+](=O)[O-])c1`: 14.1 µM (inconclusive); `O=C(O)CCC/C=C\C[C@@H]1CO[C@H](C(F)(F)F)O[C@@H]1c1ccccc1O`: 10 µM (inconclusive).

For another assay, the target named is Cytochrome P450 2C9 (Homo sapiens, UniProt P11712).
Sequence of Cytochrome P450 2C9 (P11712 whole entry): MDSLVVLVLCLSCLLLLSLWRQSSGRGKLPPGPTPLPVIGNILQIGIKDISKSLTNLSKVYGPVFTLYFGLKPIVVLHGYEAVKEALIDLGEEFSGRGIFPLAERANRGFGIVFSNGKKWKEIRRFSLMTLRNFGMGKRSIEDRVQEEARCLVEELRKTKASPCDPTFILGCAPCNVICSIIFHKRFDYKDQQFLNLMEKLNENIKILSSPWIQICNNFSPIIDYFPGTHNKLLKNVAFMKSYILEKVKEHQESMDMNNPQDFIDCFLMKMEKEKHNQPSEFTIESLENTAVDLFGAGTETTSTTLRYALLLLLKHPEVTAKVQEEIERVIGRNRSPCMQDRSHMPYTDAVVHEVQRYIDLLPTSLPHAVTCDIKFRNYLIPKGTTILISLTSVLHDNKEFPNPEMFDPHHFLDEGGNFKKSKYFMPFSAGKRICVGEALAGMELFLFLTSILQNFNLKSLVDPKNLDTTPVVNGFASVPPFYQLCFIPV
Assay: not given
Conditions: not given
Turning to `O=C(CSc1nnc(-c2cccc(S(=O)(=O)N3CCOCC3)c2)n1C1CCCCCC1)NCc1ccccc1`, the AC50 is 14.1 µM (inconclusive).
Take `O=C(O)CCC/C=C\C[C@@H]1CO[C@H](C(F)(F)F)O[C@@H]1c1ccccc1O`: the AC50 was 20 µM (inconclusive).
For `Cc1ccc(CNc2nc(N)c([N+](=O)[O-])c(Nc3ccc(F)cc3)n2)cc1`, the AC50 is 3.55 µM (inconclusive).

Test system in the next assay: not listed separately
As to the kind of experiment: cells. It counts as functional, cell-based.
Conditions: not given
On to `O=C1/C(=C/c2nc3ccccc3[nH]2)SC(=S)N1c1ccccc1`, for which the EC50 is given as > 350 µM (not active).
As for `Cc1cc(OC(C)C(=O)NNC(=O)Nc2ccc(F)cc2F)cc(C)c1Cl` (configuration not stated), the EC50 is on record as > 350 µM (not active).

Test system in the next assay: not listed separately
Nature of the assay: Luminescence Cell-Based Dose Response HTS to Identify Activators of Luciferase Translation or Activity in H4 […] Cells. [Related pubchem assays: 1829 (Project Summary), 1814 (Primary HTS)]. The assay is classed as functional.
Conditions: not given
For the compound `O=C1N=C(N2CCCCC2)SC1=C1CCCCC1`, the EC50 is 5.25 µM (active).
Same read-out and setting: next, `O=C1/C(=C/c2ccccn2)SC(=S)N1CCc1ccccc1`: 10.9 µM (active); `CCn1cc(Br)c(-c2nc3ccccc3c(=O)n2N)n1`: 8.16 µM (active).
Turning to `COc1ccc(/C=C2\SC(=O)N(CCNC(=O)C3CCN(S(=O)(=O)c4cccs4)CC3)C2=O)cc1`, the EC50 is 36.7 µM (active).
For `Cc1cccc(-n2cnc3cc(C(=O)N4CCCCC4)ccc32)c1`, the EC50 was 7.6 µM (active).
With `c1ccc(-c2ccc(OCCOCCn3cncn3)cc2)cc1`, the EC50 is 45.9 µM (active).
Same read-out and setting: next, `O=C(/C=C/c1cccs1)Nc1ccc(N2CCOCC2)c(S(=O)(=O)Nc2ccccc2Cl)c1`: 46.3 µM (active); `Cc1ccc(Cn2nc(-c3ccccc3)nc2-c2ccccc2)cc1`: 20 µM (active).

The next assay deals with Cytochrome P450 3A4 (Homo sapiens, UniProt P08684).
Sequence of Cytochrome P450 3A4 (P08684 whole entry): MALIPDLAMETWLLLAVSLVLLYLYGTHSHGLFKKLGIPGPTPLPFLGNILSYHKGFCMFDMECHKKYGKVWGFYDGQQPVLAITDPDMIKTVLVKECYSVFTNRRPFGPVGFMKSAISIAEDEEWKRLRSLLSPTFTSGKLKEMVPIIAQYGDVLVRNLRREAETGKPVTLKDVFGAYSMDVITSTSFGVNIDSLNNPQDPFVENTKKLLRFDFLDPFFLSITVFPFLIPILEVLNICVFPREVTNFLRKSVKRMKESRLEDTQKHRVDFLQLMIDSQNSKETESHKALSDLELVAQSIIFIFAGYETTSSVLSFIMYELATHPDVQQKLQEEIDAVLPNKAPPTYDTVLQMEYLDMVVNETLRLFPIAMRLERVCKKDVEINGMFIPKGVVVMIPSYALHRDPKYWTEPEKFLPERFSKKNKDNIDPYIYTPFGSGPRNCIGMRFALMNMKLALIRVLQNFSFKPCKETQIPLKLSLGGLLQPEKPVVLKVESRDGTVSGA
Assay: not given
Conditions: not given
For the compound `O=C(O)CCC/C=C\C[C@@H]1CO[C@H](C(F)(F)F)O[C@@H]1c1ccccc1O`, the AC50 is 15.8 µM (inconclusive).
On to `CCNc1ncc2nc(-c3ccc(OC)cc3)c(=O)n(CCOC)c2n1`, for which the AC50 is 15.8 µM (inconclusive).
Take `Cc1ccc(CNc2nc(N)c([N+](=O)[O-])c(Nc3ccc(F)cc3)n2)cc1`: the AC50 was 2 µM (inconclusive).

In a further assay the target is T3, Corticotropin-releasing factor receptor 2/Corticotropin-releasing factor-binding protein (Homo sapiens, UniProt P24387+Q13324).
T3 sequence (Q13324 whole entry): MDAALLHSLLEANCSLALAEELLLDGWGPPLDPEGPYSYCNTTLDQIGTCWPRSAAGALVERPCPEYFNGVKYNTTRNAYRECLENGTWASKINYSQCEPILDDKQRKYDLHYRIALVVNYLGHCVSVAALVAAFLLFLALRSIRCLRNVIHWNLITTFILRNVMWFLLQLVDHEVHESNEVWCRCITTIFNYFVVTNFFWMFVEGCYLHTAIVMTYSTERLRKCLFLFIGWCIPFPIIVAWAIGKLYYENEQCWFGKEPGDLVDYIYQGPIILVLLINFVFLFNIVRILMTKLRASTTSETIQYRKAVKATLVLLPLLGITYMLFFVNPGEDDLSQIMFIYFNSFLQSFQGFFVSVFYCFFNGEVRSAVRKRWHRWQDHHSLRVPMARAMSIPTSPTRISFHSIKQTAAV
T3 sequence (P24387 whole entry): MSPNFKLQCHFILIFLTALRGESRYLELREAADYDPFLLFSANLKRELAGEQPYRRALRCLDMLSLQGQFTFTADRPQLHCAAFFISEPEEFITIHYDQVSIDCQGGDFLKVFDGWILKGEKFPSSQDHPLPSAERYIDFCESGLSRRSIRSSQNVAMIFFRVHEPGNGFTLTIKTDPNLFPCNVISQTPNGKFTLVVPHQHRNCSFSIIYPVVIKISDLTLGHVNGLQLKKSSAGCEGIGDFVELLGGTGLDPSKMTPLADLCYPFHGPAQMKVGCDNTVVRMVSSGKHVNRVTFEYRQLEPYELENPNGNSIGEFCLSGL
As to the kind of experiment: Dose Response confirmation of uHTS hits for small molecule antagonists of the CRF-binding protein and CRF-R2 receptor complex. It counts as functional. Conditions: read-out: IC50_Mean.
Consider `Cc1ccc(C)n1NC(=O)c1ccccc1O`, for which the IC50 was > 47.1 µM (inactive).

Test system in a further assay: not listed separately
Nature of the assay: cells. It counts as functional, cell-based.
Conditions: not given
This is another data set of the same source.
`O=C1/C(=C/c2nc3ccccc3[nH]2)SC(=S)N1c1ccccc1`: the EC50 was > 350 µM (not active).
For `Cc1cc(OC(C)C(=O)NNC(=O)Nc2ccc(F)cc2F)cc(C)c1Cl` (configuration not stated), the EC50 was > 350 µM (not active).

The target in another assay is T3, Corticotropin-releasing factor receptor 2/Corticotropin-releasing factor-binding protein. Nature of the assay: activators of CRF receptor 2 with binding protein – uHTS hits, confirmation (AID 602473). It counts as functional. The note with it: read-out: EC50_Mean.
Regarding `Cc1ccc(C)n1NC(=O)c1ccccc1O`, the EC50 was > 53 µM (inactive).
